# Like-named read-outs stand apart in the source and are kept apart here.
# Assays:
# [1] = tested on: Amaranthus rudis (AMATA), tall water hemp; test: Postemergence herbicide evaluation, growth of Amaranthus rudis (AMATA); type: in vivo; conditions: for pest or weed control at 280 g/ha / pest or weed control at 560 g/ha: Amaranthus tuberculatus, post-emergence, read-out: Ave. AMATA, percent reduction in plant size relative to the untreated control
# [2] = tested on: Ambrosia artemisiifolia (AMBEL), common ragweed; test: Postemergence herbicide evaluation, growth of Ambrosia artemisiifolia (AMBEL); type: in vivo; conditions: for pest or weed control at 280 g/ha / pest or weed control at 560 g/ha: Ambrosia artemisiifolia, post-emergence, read-out: AVE. AMBEL, percent reduction in plant size relative to the untreated control
# [3] = tested on: Abutilon theophrasti (ABUTH), velvetleaf; test: Postemergence herbicide evaluation, growth of Abutilon theophrasti (ABUTH); type: in vivo; conditions: for pest or weed control at 280 g/ha / pest or weed control at 560 g/ha: Abutilon theophrasti, post-emergence, read-out: AVE. ABUTH, percent reduction in plant size relative to the untreated control
# [4] = tested on: Chenopodium album (CHEAL), common lambsquarters; test: Postemergence herbicide evaluation, growth of Chenopodium album (CHEAL); type: in vivo; conditions: for pest or weed control at 280 g/ha / pest or weed control at 560 g/ha: Chenopodium album, post-emergence, read-out: Ave. CHEAL, percent reduction in plant size relative to the untreated control
# [5] = tested on: glyphosate resistant Conyza canadensis (L.) (ERICA), horseweed; test: Postemergence herbicide evaluation, growth of Conyza canadensis (ERICA); type: in vivo; conditions: for pest or weed control at 280 g/ha / pest or weed control at 560 g/ha: Erigeron canadensis, post-emergence, read-out: Ave. ERICA, percent reduction in plant size relative to the untreated control
# [6] = Volatility of compounds measured by thermogravimetric analysis (TGA); type: physicochemical
# [7] = tested on: weeds ABUTH, AMATA, AMBEL, CHEAL, ERICA; test: Postemergence herbicide evaluation, overall average % weed control (ABUTH, AMATA, AMBEL, CHEAL, ERICA); type: in vivo; conditions: for pest or weed control at 280 g/ha / pest or weed control at 560 g/ha: post-emergence, read-out: Overall Ave % Weed Control
smiles,measurement,setting,value
O=C(COc1ccc(Cl)cc1Cl)Oc1ncc(Cl)cn1 [Compound E13],pest or weed control at 280 g/ha,"[1]; 168 h, 280 g ae/ha, 7 DAA",85%
same,pest or weed control at 560 g/ha,"[1]; 168 h, 560 g ae/ha, 7 DAA",87.5%
same,pest or weed control at 280 g/ha,"[1]; 336 h, 280 g ae/ha, 14 DAA",82.5%
same,pest or weed control at 560 g/ha,"[1]; 336 h, 560 g ae/ha, 14 DAA",96%
same,pest or weed control at 280 g/ha,"[1]; 504 h, 280 g ae/ha, 21 DAA",86.5%
same,pest or weed control at 560 g/ha,"[1]; 504 h, 560 g ae/ha, 21 DAA",99%
same,pest or weed control at 280 g/ha,"[2]; 168 h, 280 g ae/ha, 7 DAA",70%
same,pest or weed control at 560 g/ha,"[2]; 168 h, 560 g ae/ha, 7 DAA",82.5%
same,pest or weed control at 280 g/ha,"[2]; 336 h, 280 g ae/ha, 14 DAA",89.5%
same,pest or weed control at 560 g/ha,"[2]; 336 h, 560 g ae/ha, 14 DAA",97.5%
same,pest or weed control at 280 g/ha,"[2]; 504 h, 280 g ae/ha, 21 DAA",100%
same,pest or weed control at 560 g/ha,"[2]; 504 h, 560 g ae/ha, 21 DAA",100%
same,pest or weed control at 280 g/ha,"[3]; 168 h, 280 g ae/ha, 7 DAA",76.5%
same,pest or weed control at 560 g/ha,"[3]; 168 h, 560 g ae/ha, 7 DAA",72.5%
same,pest or weed control at 280 g/ha,"[3]; 336 h, 280 g ae/ha, 14 DAA",90%
same,pest or weed control at 560 g/ha,"[3]; 336 h, 560 g ae/ha, 14 DAA",93.5%
same,pest or weed control at 280 g/ha,"[3]; 504 h, 280 g ae/ha, 21 DAA",100%
same,pest or weed control at 560 g/ha,"[3]; 504 h, 560 g ae/ha, 21 DAA",100%
same,pest or weed control at 280 g/ha,"[4]; 168 h, 280 g ae/ha, 7 DAA",77.5%
same,pest or weed control at 560 g/ha,"[4]; 168 h, 560 g ae/ha, 7 DAA",85%
same,pest or weed control at 280 g/ha,"[4]; 336 h, 280 g ae/ha, 14 DAA",95%
same,pest or weed control at 560 g/ha,"[4]; 336 h, 560 g ae/ha, 14 DAA",90%
same,pest or weed control at 280 g/ha,"[4]; 504 h, 280 g ae/ha, 21 DAA",96.5%
same,pest or weed control at 560 g/ha,"[4]; 504 h, 560 g ae/ha, 21 DAA",100%
same,pest or weed control at 280 g/ha,"[5]; 168 h, 280 g ae/ha, 7 DAA",82.5%
same,pest or weed control at 560 g/ha,"[5]; 168 h, 560 g ae/ha, 7 DAA",80%
same,pest or weed control at 280 g/ha,"[5]; 336 h, 280 g ae/ha, 14 DAA",100%
same,pest or weed control at 560 g/ha,"[5]; 336 h, 560 g ae/ha, 14 DAA",99%
same,pest or weed control at 280 g/ha,"[5]; 504 h, 280 g ae/ha, 21 DAA",99.5%
same,pest or weed control at 560 g/ha,"[5]; 504 h, 560 g ae/ha, 21 DAA",97.5%
same,"TGA Data (rate of weight loss, volatility)",[6],0.16 µg/min
same,pest or weed control at 280 g/ha,"[7]; 168 h, 280 g ae/ha, 7 DAA",78.3%
same,pest or weed control at 560 g/ha,"[7]; 168 h, 560 g ae/ha, 7 DAA",81.5%
same,pest or weed control at 280 g/ha,"[7]; 336 h, 280 g ae/ha, 14 DAA",91.4%
same,pest or weed control at 560 g/ha,"[7]; 336 h, 560 g ae/ha, 14 DAA",95.2%
same,pest or weed control at 280 g/ha,"[7]; 504 h, 280 g ae/ha, 21 DAA",96.5%
same,pest or weed control at 560 g/ha,"[7]; 504 h, 560 g ae/ha, 21 DAA",99.3%
O=C(COc1ccc(Cl)cc1Cl)Oc1cncnc1 [Compound E1],"Ave. AMATA, percent reduction in plant size relative to the untreated control","[1]; 280 g ae/ha, 7 DAA",78%
same,"Ave. AMATA, percent reduction in plant size relative to the untreated control","[1]; 280 g ae/ha, 14 DAA",75%
same,"Ave. AMATA, percent reduction in plant size relative to the untreated control","[1]; 280 g ae/ha, 21 DAA",70%
same,"Ave. AMATA, percent reduction in plant size relative to the untreated control","[1]; 560 g ae/ha, 7 DAA",73%
same,"Ave. AMATA, percent reduction in plant size relative to the untreated control","[1]; 560 g ae/ha, 14 DAA",85%
same,"Ave. AMATA, percent reduction in plant size relative to the untreated control","[1]; 560 g ae/ha, 21 DAA",85%
same,"AVE. AMBEL, percent reduction in plant size relative to the untreated control","[2]; 280 g ae/ha, 7 DAA",65%
same,"AVE. AMBEL, percent reduction in plant size relative to the untreated control","[2]; 280 g ae/ha, 14 DAA",96%
same,"AVE. AMBEL, percent reduction in plant size relative to the untreated control","[2]; 280 g ae/ha, 21 DAA",99%
same,"AVE. AMBEL, percent reduction in plant size relative to the untreated control","[2]; 560 g ae/ha, 7 DAA",73%
same,"AVE. AMBEL, percent reduction in plant size relative to the untreated control","[2]; 560 g ae/ha, 14 DAA",90%
same,"AVE. AMBEL, percent reduction in plant size relative to the untreated control","[2]; 560 g ae/ha, 21 DAA",97%
same,"AVE. ABUTH, percent reduction in plant size relative to the untreated control","[3]; 280 g ae/ha, 7 DAA",93%
same,"AVE. ABUTH, percent reduction in plant size relative to the untreated control","[3]; 280 g ae/ha, 14 DAA",96%
same,"AVE. ABUTH, percent reduction in plant size relative to the untreated control","[3]; 280 g ae/ha, 21 DAA",100%
same,"AVE. ABUTH, percent reduction in plant size relative to the untreated control","[3]; 560 g ae/ha, 7 DAA",85%
same,"AVE. ABUTH, percent reduction in plant size relative to the untreated control","[3]; 560 g ae/ha, 14 DAA",97%
same,"AVE. ABUTH, percent reduction in plant size relative to the untreated control","[3]; 560 g ae/ha, 21 DAA",100%
same,"Ave. CHEAL, percent reduction in plant size relative to the untreated control","[4]; 280 g ae/ha, 7 DAA",70%
same,"Ave. CHEAL, percent reduction in plant size relative to the untreated control","[4]; 280 g ae/ha, 14 DAA",73%
same,"Ave. CHEAL, percent reduction in plant size relative to the untreated control","[4]; 280 g ae/ha, 21 DAA",78%
same,"Ave. CHEAL, percent reduction in plant size relative to the untreated control","[4]; 560 g ae/ha, 7 DAA",75%
same,"Ave. CHEAL, percent reduction in plant size relative to the untreated control","[4]; 560 g ae/ha, 14 DAA",90%
same,"Ave. CHEAL, percent reduction in plant size relative to the untreated control","[4]; 560 g ae/ha, 21 DAA",87%
same,"Ave. ERICA, percent reduction in plant size relative to the untreated control","[5]; 280 g ae/ha, 7 DAA",68%
same,"Ave. ERICA, percent reduction in plant size relative to the untreated control","[5]; 280 g ae/ha, 14 DAA",85%
same,"Ave. ERICA, percent reduction in plant size relative to the untreated control","[5]; 280 g ae/ha, 21 DAA",95%
same,"Ave. ERICA, percent reduction in plant size relative to the untreated control","[5]; 560 g ae/ha, 7 DAA",75%
same,"Ave. ERICA, percent reduction in plant size relative to the untreated control","[5]; 560 g ae/ha, 14 DAA",85%
same,"Ave. ERICA, percent reduction in plant size relative to the untreated control","[5]; 560 g ae/ha, 21 DAA",98%
same,"TGA Data (rate of weight loss, volatility)",[6],0.8 µg/min
same,Overall Ave % Weed Control,"[7]; 280 g ae/ha, 7 DAA",75%
same,Overall Ave % Weed Control,"[7]; 280 g ae/ha, 14 DAA",85%
same,Overall Ave % Weed Control,"[7]; 280 g ae/ha, 21 DAA",88%
same,Overall Ave % Weed Control,"[7]; 560 g ae/ha, 7 DAA",76%
same,Overall Ave % Weed Control,"[7]; 560 g ae/ha, 14 DAA",89%
same,Overall Ave % Weed Control,"[7]; 560 g ae/ha, 21 DAA",93%

# Reference: patent US20260042731A1, “(2,4-DICHLOROPHENOXY)ACETIC ACID ANALOGS” (CORTEVA AGRISCIENCE LLC, priority 2022, published 2026)
